Measurements published in publication PMC9182086, “Identification of New Non-BBB Permeable Tryptophan Hydroxylase Inhibitors for Treating Obesity and Fatty Liver Disease” (Molecules, 2022).

What was measured:
[1] = test system: HFD-fed C57BL/6J mice; assay: In vivo efficacy test in high-fat diet fed mice; parameters: species or system mouse; conditions: vs vehicle
Protocol: All animal study protocols were approved by the Institutional Animal Care and Use Committee at the Korea Advanced Institute of Science and Technology. Male C57BL/6J mice were purchased from SLC (Shizuoka, Japan) and acclimatized for a week. Mice were housed in a humidity and temperature-controlled environment under a 12 h light-dark cycle with ad libitum access to water and food. After acclimatization, male mice were fed a high-fat diet (HFD, 60% fat calories, Research diet; New Brunswick, NJ) and received daily treatment with TPH1 inhibitors. […] Compound 18i was dissolved in 5% dimethyl sulfoxide (DMSO) (Sigma, St. Louis, MO, USA) and 25% β-cyclodextrin (Sigma, St. Louis, MO, USA). Vehicle or compound 18i (100 mg kg^−1) was injected intraperitoneally in mice for 10 days after two weeks of HFD feeding. Both compounds 19 and 21 were prepared in 10% DMSO and 10% Kolliphor EL (Sigma, St. Louis, MO, USA). Vehicle and 100 mg kg^−1 of compound 19 or compound 21 were administered daily by intraperitoneal injection or oral feeding, respectively, concomitant to the initiation of HFD feeding. For analyzing blood glucose concentration, glucose in blood collected from the tail vein was measured after fasting mice for 16 h using a Gluco Dr. Top glucometer (Allemedicus, Anyang, Korea). Body weight was measured daily and mice were sacrificed for harvesting adipose tissue and liver.
Tissue samples were fixed in 10% formalin, embedded in paraffin, and cut into 5 μm thick sections, followed by deparaffinization and rehydration for H&E staining and UCP1 immunohistochemistry. After heat-induced antigen retrieval with a citrate buffer (pH 6.0) for 10 min at 95°C, tissue sections were incubated with BLOXALL Blocking solution (Vector Laboratories, Burlingame, CA, USA) to block endogenous peroxidase, followed by incubation with 2% normal goat serum in phosphate-buffered saline (PBS) for 30 min at room temperature to block nonspecific binding. Sections were incubated overnight with the anti-UCP1 primary antibody diluted 1:200 in 2% normal goat serum in PBS (Abcam, Cambridge, UK) at 4 °C, followed by 30 min incubation with biotinylated anti-rabbit IgG secondary antibody diluted 1:400 in PBS for 30 min at room temperature. After incubation with Vectastain […] reagent (Vector Laboratories) for 30 min, peroxidase activity was visualized with 3,3′-diaminobenzidine substrates (Vector Laboratories). For measuring average adipocyte size, we analyzed three random fields of H&E stained micrographs per adipose tissue sample from two representative mice of each group using AdipoCount software.
Fresh liver tissues were flash frozen in O.C.T. compound (Sakura Finetek, Torrance, CA, USA) and 10 μm cryostat sections were collected on glass slides. Sections were allowed to air-dry for 1 h, rinsed with PBS for 5 min, and washed with distilled water for 5 min. After washing, sections were placed in 30% isopropanol for 5 min, 60% isopropanol for 5 min twice, and then stained in Oil Red O solution (0.5% Oil red O (Sigma, St. Louis, MO, USA) dissolved in 60% isopropanol) for 15 min. The stained sections were rinsed twice with distilled water, mounted, coverslipped, and documented using bright field microscopy.

[2] = target: T1, CYP1A2 (Homo sapiens, UniProt P05177); assay: CYP inhibition assay (P450-Glo) CYP1A2; format: in vitro ADME; conditions: P450-Glo CYP1A2 Screening System (CYP enzyme), read-out: CYP inhibition 1A2
T1 construct: purchased Promega Corp. V9770
T1 sequence (P05177 1-516): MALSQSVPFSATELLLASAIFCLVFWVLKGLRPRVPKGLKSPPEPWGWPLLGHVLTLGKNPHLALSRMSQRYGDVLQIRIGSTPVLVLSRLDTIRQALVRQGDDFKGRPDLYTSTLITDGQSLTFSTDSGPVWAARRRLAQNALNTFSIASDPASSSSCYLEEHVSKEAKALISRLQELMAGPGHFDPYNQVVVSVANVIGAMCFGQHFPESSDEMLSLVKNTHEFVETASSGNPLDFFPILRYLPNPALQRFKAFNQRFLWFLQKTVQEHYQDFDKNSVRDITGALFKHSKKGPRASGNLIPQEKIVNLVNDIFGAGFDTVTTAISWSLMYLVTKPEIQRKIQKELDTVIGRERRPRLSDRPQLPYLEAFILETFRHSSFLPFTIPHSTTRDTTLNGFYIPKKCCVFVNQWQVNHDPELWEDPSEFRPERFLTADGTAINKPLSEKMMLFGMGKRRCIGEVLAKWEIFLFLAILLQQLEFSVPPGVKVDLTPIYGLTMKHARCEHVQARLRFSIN
Source text: Five major screening systems: P450-Glo CYP1A2 Screening System (Catalog# V9770), P450-Glo CYP2C9 Screening System (Catalog# V9790), P450-Glo CYP2C19 (Catalog# V9880), P450-Glo CYP 2D6 (Catalog# V9890), and P450-Glo CYP3A4 (Catalog# V9920) were attained from Promega Corp. (Madison, WI). α-naphthoflavone, sulfaphenazole, amitriptyline, quinidine, and ketoconazole were identified as positive control inhibitors for CYP1A2, CYP2C9, CYP2C19, CYP2D6, and CYP3A4, respectively. The CYP enzyme and substrate were combined in a potassium phosphate (KPO4) buffer and the reaction is initiated by adding an NADPH regenerating system. The volume of the mixture (12.5 μL in a 96-well plate) was combined with an equal volume of test compound solution and positive control inhibitor (12.5 μL added to make the volume 25 μL). The reaction of the NADPH regeneration system was initiated by adding a 2× concentration of NADPH solution. Then an equal volume of luciferin detection reagent was added. The plates were incubated at room temperature for 20 min and the luminescence signal was measured by a microplate reader device.

inhibition at 10 µM [2]: 0.1%
Structure (SMILES): Cc1ccn(-c2cc(Cl)ccc2[C@@H](Oc2ncnc3c(-c4ccc(C[C@H](N)C(=O)O)cc4)csc23)C(F)(F)F)n1.Cl [Compound 18i, (S)-2-amino-3-(4-(4-((R)-1-(4-chloro-2-(3-methyl-1H-pyrazol-1-yl)phenyl)-2,2,2-trifluoroethoxy)thieno[3,2-d]pyrimidin-7-yl)phenyl)propanoic acid hydrochloride]
Body weight gain ([1]; 100 mg/kg ip daily for 10 days after two weeks of HFD): blunted weight gain
eWAT and BAT adipocyte size (histology) ([1]; 100 mg/kg ip daily for 10 days): significant reduction
Fasting blood glucose levels ([1]; 16 h fasting): lower fasting blood glucose levels
